Tests used:
[1] = biological target: T1, Cholesteryl ester transfer protein (Homo sapiens, UniProt P11597); test: Inhibition of CETP-mediated [3H]-CE from HDL to LDL in human plasma
T1 sequence (P11597 whole entry): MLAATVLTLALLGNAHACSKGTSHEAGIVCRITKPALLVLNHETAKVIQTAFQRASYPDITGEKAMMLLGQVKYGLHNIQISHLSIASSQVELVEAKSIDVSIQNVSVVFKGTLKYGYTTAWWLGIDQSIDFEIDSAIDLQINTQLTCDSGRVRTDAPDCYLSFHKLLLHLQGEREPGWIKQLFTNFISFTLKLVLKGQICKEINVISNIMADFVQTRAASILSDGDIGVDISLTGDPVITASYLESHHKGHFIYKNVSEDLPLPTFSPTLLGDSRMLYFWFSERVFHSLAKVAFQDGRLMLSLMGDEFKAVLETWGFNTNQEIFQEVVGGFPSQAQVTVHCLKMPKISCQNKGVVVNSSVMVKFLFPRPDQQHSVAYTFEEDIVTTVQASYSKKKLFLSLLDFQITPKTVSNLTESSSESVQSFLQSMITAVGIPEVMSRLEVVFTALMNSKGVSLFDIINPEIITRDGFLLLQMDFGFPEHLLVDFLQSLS

Mus musculus = test: Ex vivo inhibition of human CETP overexpressed in po dosed double transgenic mouse harboring human apoA1 assessed as elevation of HDL-cholesterol level measured at 8 hrs post dose; assay type: functional

Row | IC50 [1] [nM] | SMILES | ED50 (Mus musculus) [mg/kg]
1 | 600 | NCC(O)C(F)(F)F (configuration not stated) | 
2 |  | Cc1cc(C)c2c(c1)[C@@H](N(Cc1cc(C(F)(F)F)cc(C(F)(F)F)c1)c1nnn(C)n1)CCCN2C[C@H]1CC[C@H](C(=O)O)CC1 [EVACETRAPIB] | < 5

— ChEMBL document CHEMBL3351791, “Some molecular targets for antihyperlipidemic drug research” (Eur J Med Chem, 2014)
